Source: US20250241901A1, “ACTIVATION OF MNRR1 / CHCHD2 AS A THERAPEUTIC TARGET FOR MITOCHONDRIA ASSOCIATED DISORDERS” (Wayne State University, priority 2024, published 2025)

Tests used:
TNF transcription = test: TNF transcript levels in LPS-treated HTR8 cells (real-time PCR); type: cell-based, human
Experimental: FIGS. 1A-1D. Nitazoxanide's anti-inflammatory effects are via transcriptional activation of MNRR1. (FIG. 1A) Results of a screen of ˜2400 FDA-approved drugs and natural compounds identified to transcriptionally activate (>1), inhibit (<1), or not affect (=1) MNRR1. Each circle represents one drug and the MNRR1 activator (nitazoxanide (N)) has been highlighted in green. (FIG. 1B) Equal numbers of HTR cells overexpressing the MNRR1-luciferase reporter were plated on a 96 well plate and treated with increasing amounts of nitazoxanide or vehicle (DMSO) for 24 h. EC50 was calculated using the activation of MNRR1 reporter relative to vehicle treated cells using the Quest Graph^TM EC50 Calculator. (FIG. 1C) TNF transcript levels were measured in human placental cells. Actin was used as a housekeeping gene for normalization. Abbreviations: WT, MNRR1-WT; MNRR1-KO, knockout of MNRR1; C, control (water); LPS, lipopolysaccharide; N, nitazoxanide; KO+WT-MNRR1, knockout cells +MNRR1−WT overexpression. n=4 biological replicates; significance: *, p-value<0.05; ns is non-significant. […]
Real-time polymerase chain reaction: Total cellular RNA was extracted from mouse placental tissues or HTR8 cells by using a RNeasy Plus Mini Kit (Qiagen, Germantown, MD, USA), according to the manufacturer's instructions. […] Transcript levels were measured by real-time PCR by using SYBR green on an ABI 7500 system. […]

[1] = tested on: E. coli-induced placental inflammation; test: E. coli-induced placental inflammation model of preterm birth; type: in vivo; details: same dosage as in LPS model
From the text: Using the E. coli-induced placental inflammation model and methods similar to those described in Spencer et al. (PLoS One, 16(12): e0260370, 2021 doi: 10.1371/journal.pone.0260370), nitazoxanide therapy will be tested using the same dosage as above and in Purandare et al. (Placenta 140:66-71, 8 Jul. 2023; Purandare et al., bioRxiv, Feb. 1, 2023).

MELAS cybrid cells = test: Mitophagy markers in MELAS cybrid cells (immunoblot); type: cell-based, human; details: 10 μM, 48 h
Experimental: FIGS. 7A-7E: MNRR1 activation by tizoxanide enhances mtDNA biogenesis and mitophagy to shift heteroplasmy in MELAS cells. FIG. 7A: Oxygen consumption measured from MELAS cybrid cells treated with vehicle (DMSO) or tizoxanide (10 μM) for 48 h (n=4 biological replicates, error bars represent SE). FIG. 7B: Haelll restriction enzyme digestion of a PCR-amplified fragment of mtDNA harboring the m.3243A>G mutation from DW7 cells treated with vehicle (DMSO) or tizoxanide (10 μM) for 144 h. […] FIG. 7C: Genes identified using qPCR of MELAS cybrid cells stably overexpressing EV or MNRR1. FIG. 7D: MtDNA levels are shown relative to nuclear DNA (nDNA) (GAPDH) (n=5 biological replicates, error bars represent SE). FIG. 7E: Equal amounts of MELAS cybrid cell lysates, treated with vehicle (DMSO) or tizoxanide (10 μM) for 48 h, were separated on an SDS-PAGE gel and probed for PGC1a, PINK1, LC3 A/B, MNRR1, and Tubulin. […]
Immunoblotting: Immunoblotting was performed as described previously. […] The clear supernatants were transferred to new tubes and quantified using the Bradford reagent with BSA as standard (BioRad, Hercules. CA). […] For detection after immunoblotting, the SuperSignal™ West Pico PLUS substrate (ThermoFisher, Waltham, MA) was used to generate chemiluminescence signal, which was detected with X-Ray film (RadTech, Vassar, MI).

Row | SMILES | LPS-induced activation of TNF transcription (TNF transcription; HTR8 cells, MNRR1-WT) | anti-inflammatory benefit (TNF transcript) in MNRR1 knockout cells (TNF transcription; MNRR1 knockout cells) | reducing or preventing pre-term birth [1] | mitophagy (PINK1, LC3A, LC3B, pSer-65 ubiquitin) (MELAS cybrid cells)
1 | CC(=O)Oc1ccccc1C(=O)Nc1ncc([N+](=O)[O-])s1 [nitazoxanide, Nitazoxanide] | reduced to control levels in an MNRR1-dependent fashion | no nitazoxanide-mediated benefit | effective in reducing or preventing pre-term birth | –
2 | O=C(Nc1ncc([N+](=O)[O-])s1)c1ccccc1O [tizoxanide, Tizoxanide] | – | – | – | Increased mitophagy
